Experimental data: patent US20260158002A1, “APPLICATION OF COMPOSITION CONTAINING EDARAVONE AND DEXBORNEOL IN IMPROVING OR TREATING COGNITIVE IMPAIRMENT” (NEURODAWN PHARMACEUTICAL CO., LTD., priority 2021, published 2026)

Columns and labels:
5×FAD transgenic mice [1] = test: Brain slice electrophysiology test (hippocampal LTP) in 5×FAD transgenic mice; assay type: in vivo, mouse; conditions: brain slices after 16 weeks of administration; edaravone 6 mg/kg or composition 7.5 mg/kg i.p. once daily
Description: (§1) In the experiment, the animals were divided into 4 groups. Administration was performed on the mice in each group from 8 weeks of age. After 16 weeks of continuous daily administration, water maze and Y maze behavioral tests were performed. After the behavioral tests were completed, the animals were sacrificed, and brain slice electrophysiology and AD pathology within the brain were tested, including the test of Aβ plaques, biomarkers such as GFAP and Iba-1, p-Tau, etc.
Electrophysiological recording was performed after the behavioral test of mice was completed. After anesthesia, all mice were euthanized, the brain tissues were rapidly collected and stored in 4° C. oxygenated (95% O2/5% CO2) artificial cerebrospinal fluid (ACSF) (75 mM sucrose, 87 mM NaCl, 2.5 mM KCl), 1.25 mM NaH2PO4, 21.4 mM NaHCO3, 0.5 mM CaCl2, 7 mM MgCl2 and 20 mM glucose. Hippocampal slices were cut by a vibrating knife in 4° C. oxygenated ACSF, and in 32° C. oxygenated ACSF. Next, the slices were incubated at room temperature for 1 hour before recording. Hippocampal LTP was induced by two theta burst stimulations (TBS). Data acquisition and analysis were performed using Clampex and Clampfit 8.2 (Molecular Devices).
(§2) Data were expressed as Mean±SEM. […]

[2] = system: tau P301L transgenic mouse model; conditions: tau P301L mice aged 9 to 10 months and 21 months; oral with drinking water 24 mg/kg/day for 3 consecutive months; cited from earlier work
5×FAD transgenic mice [3] = test: Water maze test in 5×FAD transgenic mice; assay type: in vivo, mouse; conditions: 5×FAD mice
Description: as §1
5×FAD: edaravone group: ten 5×FAD mice were given edaravone ( ? ®) 6 mg/kg via i.p. at a dose of 10.0 mL/kg once daily.
5×FAD: composition group: ten 5×FAD mice were given 7.5 mg/kg edaravone and dexborneol concentrated solution for injection ( ? ®) (edaravone:dexborneol=4:1, containing 6 mg/kg edaravone and 1.5 mg/kg dexborneol) at a dose of 10.0 ml/kg once daily.
Experiment preparation: A constant temperature pool (120 cm in inner diameter and 50 cm in height) of a water maze was filled with clear water. The water temperature was controlled at about 18° C.-22° C. The four apexes of the pool were selected and designated as “S”, “N”, “W” and “E”, respectively. The platform was placed in the “SW” direction and 1-2 cm below the water surface. Titanium dioxide was added to the water to make the water opaque milky white.
Parameter setting: the test time was set to 1 min, and the residence time of mice on the platform was set to 2 s.
Training: The first 5 days were for the training phase of the water maze, the mice were placed in the pool in four different orientations every day, and their trajectories before boarding the platform, as well as the travel and time in each quadrant were recorded.
Testing: Testing was performed on the first day after the training was completed. During the testing, the platform was removed, the testing time was 60 s, the mouse was placed in the NE orientation, and the number of times the mouse crossed the platform and the time in the platform quadrant during the testing were recorded.
as §2

[4] = edaravone 6 mg/kg or composition 7.5 mg/kg i.p. once daily for 16 weeks

SMILES: CC1=NN(c2ccccc2)C(=O)C1 [edaravone, 3-methyl-1-phenyl-2-pyrazolin-5-one]
- restoration of hippocampal LTP, vs 5×FAD mouse group (5×FAD transgenic mice [1]): no obvious restoration effect
- cognitive function in water maze test and novel object recognition test [2]: can significantly improve the cognitive function of the animals in water maze test and novel object recognition test
- number of times the mouse crossed the platform in platform withdrawal test, vs solvent control (5×FAD transgenic mice [3]; [4]): prolong the residence time in the target quadrant and the number of times the mouse crossed the platform
- residence time in the target quadrant in platform withdrawal test, vs solvent control (5×FAD transgenic mice [3]; [4]): prolong the residence time in the target quadrant
- escape latency in water maze hidden platform test, vs solvent control (5×FAD transgenic mice [3]; edaravone 6 mg/kg or composition 7.5 mg/kg i.p. once daily for 16 weeks from 8 weeks of age): could significantly shorten the escape latency
